Here are results for six molecules from patent US20250346587A1, “NITROGEN-CONTAINING FIVE-MEMBERED HETEROCYCLIC DERIVATIVES AS CHECKPOINT KINASE 1 INHIBITOR AND USES THEREOF” (SPEROGENIX THERAPEUTICS LIMITED, priority 2022, published 2025).

In series [1] the target is CHK-1 kinase (Homo sapiens (Human), UniProt O14757). The experiment in a line: CHK-1 % inhibition kinase assay (TR-FRET). The format is biochemical. The conditions noted are these: ATP 15 μM; for inhibition at 0.03 µM / inhibition at 0.3 µM: CHK1 enzyme; for inhibition at 0.03 µM: compound 30 nM; for inhibition at 0.3 µM: compound 300 nM; for IC50: TR-FRET, read-out: CHK1 IC50. The procedure: Inhibition of CHK-1 kinase or percent inhibition at defined concentrations was determined by TR-FRET assay. Kinase reactions were performed in a 20 μL volume in low-volume 384-well plates (Cat #Corning 4511). The concentration of substrate Fluorescein-CREBtide was maintained at 0.2 μM in the assay, and the kinase reaction buffer consisted of 50 mM HEPES pH 7.5, 0.01% BRIJ-35, 10 mM MgCl2, 1 mM EGTA. Serially diluted compounds (3-fold) in DMSO (0.5% in final reaction) were incubated with cocktail of CHK-1 kinase (6 nM; Cat #PR3959B, ThermoFisher), Fluorescein-CREBtide (0.2 μM; Cat #PV3508, ThermoFisher), ATP (15 μM; Cat #A1852, Sigma), and kinase reaction buffer. After 1 hour kinase reactions at room temperature, 10 μL of Detection mix (8 nM LanthaScreen® Tb-CREB [pSer133] antibody, Cat #PV3542, ThermoFisher with 20 mM EDTA in TR-FRET Buffer, Cat #PV3574, ThermoFisher) was added, and the plate was read with a plate reader (Synergy™ NEO; Biotek) for TR-FRET.
The resulting TR-FRET emission ratio was used to calculate the percent inhibition by normalizing to the control using the following formula: […]

Series [2] is described as follows: Caco-2 cell permeability assay. Particulars: human; for Papp A→B at 120 min: Caco-2, A to B; for Papp A→B at 120 min / Papp B→A at 120 min: pH 7.4; for Papp B→A at 120 min: Caco-2, B to A. The format is in vitro ADME. As to the method: After thawed, Caco-2 cells were cultured in the medium containing 10% FBS, 1% Sodium pyruvate, 1% NEAA and 1% Glutamax MEM, then were placed in the incubator containing 5% CO2 at 37° C., and the culture medium then was replaced every 2-3 days. When the confluence reached 80%, the subculture was carried out. Add 5 mL of 1 M HEPES to 500 mL of HBSS for preparing transport buffer (pH 7.4), and the final concentration of HEPES was 10 mM. Before the transport study (day 21-28), take out the culture medium from the cell culture plate, wash it twice with preheated HBSS buffer (10 mM HEPES, pH 7.4), and add 100 μL HBSS buffer to each well. After incubation at 37° C. for 30 minutes, Teer value was measured by cell resistance meter (Millicell-ERS2) to confirm the integrity of monolayer cells. Discard the HBSS buffer, transfer the upper plate containing the cell monolayer membrane to the corresponding receiving plate, add the test compound solution or buffer to the top (side A) and the bottom (side B) respectively, put the cell plate into the corresponding 96 well receiving plate, and add the prepared positive control compound, test compound or HBSS buffer (with 0.5% BSA) on side A or side B of the filter membrane of Transwell cell plate according to the following groups, incubate cell plates at 37° C. When incubated for 5 minutes, 8 μL sample solutions were taken from the side A and the side B respectively and add 72 μL transport buffer (diluted 10 times) as TO of the initial solution. After 120 minutes of incubation, collect the samples at both ends of the filter membrane of Transwell cell plate; take 80 μL sample solution from the receiving side as the sample on the receiving side after transport, meanwhile take 8 μL sample solution from the administration side and then mix with 72 μL transport buffer, the well-mixed solution was used as the sample on the administration side after transport. After collecting bilateral samples, tap gently, discard the remaining solution in the cell plate, wash the cell plate with transport buffer; and to each well, add 100 μL acetonitrile solution containing internal standard working solution to lyse cells; After mixing well by blowing up and down, take 80 μL per well cell lysate as the sample after cell lysis. After collecting all samples in the transport system (TO sample from receiving side and administration side), 160 μL IS/ACN solution was added to each well, 80 μL IS/ACN solution was added to the collected lysate sample, and then seal it. Shake for 10 minutes and store the sample plate at −20° C. before LC-MS/MS analysis.
The following equation are used to calculate the apparent permeability coefficient (Papp, cm/s), the efflux ratio (ER), the solution recovery (% Recovery) and the total recovery (% Total Recovery).
Where, • Vreceiver is the volume of solution at the receiving end (0.25 mL for A to B and 0.1 mL for B to A); • Vdonor is the volume of the solution at the administration end (0.1 mL for A to B and 0.25 mL for B to A); • Vlysate is the volume of cell lysate (0.1 mL); • Area is the relative surface area of the cell monolayer (0.0804 cm^2); • Time is the incubation time (7200 s); • [drug]receiver is the drug concentration (nM) at the receiving end or the control compound; • [drug]donor is the concentration of drug or control compound at the administration end (nM); • [drug]lysate is the concentration of drug or control compound in cell lysate (nM); • [drug]initial is the initial concentration of the test or control compound (nM).
In general terms: Caco-2 monolayers are a common model of the intestinal barrier.

Series [3] can be described thus: Microsomal stability assay, human liver microsome. The format is in vitro ADME. The conditions noted are these: liver microsomes, pH 7.4, 0.2 mg/mL, 1 μM compound, 37° C., read-out: Clint HLM. As to the method:
(§1) Incubation mixture contained 0.2 mg/mL microsomes, 1 mmol NADPH, and test compound at 1 μM in 100 mmol potassium phosphate buffer at pH 7.4. The mixtures were incubated at 37° C. for 5, 15, and 30 minutes. Aliquots of the mixtures were taken at 0, 5, 15 and 30 minutes and quenched with chilled Acetonitrile:Methanol (50:50) containing internal standard. Following completion of incubation, samples were centrifuged at 4,000 rpm at 4° C. The supernatant was analyzed by LC-MS/MS and half-life, as well as intrinsic clearance (Clint), were calculated.
On the technique in general: Microsomes from liver hold many membrane-bound enzymes, among them those of drug oxidation.

The nature of series [4]: Microsomal stability assay, mouse liver microsome. The format is in vitro ADME. The conditions noted are these: liver microsomes, pH 7.4, 0.2 mg/mL, 1 μM compound, 37° C., read-out: Clint MLM. The procedure:
as §1

Series [5] is described as follows: Microsomal stability assay, rat liver microsome. Format: in vitro ADME. The conditions noted are these: liver microsomes, pH 7.4, 0.2 mg/mL, 1 μM compound, 37° C., read-out: Clint RLM. The procedure:
as §1

Series [6] can be described thus: Kinetic solubility assay (nephelometry). The conditions noted are these: PBS, 37 °C, pH 7.4, aqueous buffer, kinetic from dmso stock.
Description: (§2) Test articles were serially diluted in DMSO from concentration range of 10 mM to 0.078 mM in 96 well v-bottom dilution plate (#3363, Corning). 1 μL of test article from each well was transferred to 96 well flat bottom clear plates (#655101, Greiner) containing 99 μL of PBS at pH-7.4, which makes the test drug final concentration range from 100 μM to 0.78 μM. Samples were incubated for 1 hour at 37° C. followed by measurement of light scattering at 625 nm with a laser based micro plate Nephelometer (Nephlostar Plus, BMG Labtech). Solubility concentration (μM) was then calculated by segmental regression with Neplometer as Readout.
Series [7] can be described thus: physchem. The conditions noted are these: 37 °C, pH 7.4, aqueous buffer, kinetic from dmso stock.
Description: as §2
The mark [8] stands for this setting: Caco-2, pH 7.4, Caco-2, solution recovery, A to B, read-out: Recovery % A to B.
The mark [9] stands for this setting: Caco-2, pH 7.4, Caco-2, solution recovery, B to A, read-out: Recovery % B to A.
The mark [10] stands for this setting: Caco-2, pH 7.4, Caco-2, total recovery with cell lysate, A to B, read-out: Recovery % with Cell Lysate A to B.
[11] abbreviates: Caco-2, pH 7.4, Caco-2, total recovery with cell lysate, B to A, read-out: Recovery % with Cell Lysate B to A.

Molecules are shown by their SMILES. ≈ marks a conversion by molar mass, not a printed value. Like-named read-outs stand apart in the source and are kept apart here. Bounds are passed on as bounds.

Chain of CHK-1 kinase (O14757 whole entry): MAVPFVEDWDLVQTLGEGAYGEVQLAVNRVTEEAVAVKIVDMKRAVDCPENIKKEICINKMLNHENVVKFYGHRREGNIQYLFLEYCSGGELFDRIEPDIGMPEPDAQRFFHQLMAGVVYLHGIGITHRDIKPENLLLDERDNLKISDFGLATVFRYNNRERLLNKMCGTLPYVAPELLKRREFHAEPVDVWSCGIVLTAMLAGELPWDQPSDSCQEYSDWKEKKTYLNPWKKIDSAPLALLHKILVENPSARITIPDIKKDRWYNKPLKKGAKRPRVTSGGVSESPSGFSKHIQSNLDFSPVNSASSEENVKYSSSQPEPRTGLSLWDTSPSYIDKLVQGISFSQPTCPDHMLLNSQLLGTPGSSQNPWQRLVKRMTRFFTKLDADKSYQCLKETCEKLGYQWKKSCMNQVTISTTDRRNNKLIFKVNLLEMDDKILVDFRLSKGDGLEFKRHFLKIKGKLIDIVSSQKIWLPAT

As a reminder, the inhibition is the change of the read-out against control, counted positive when it falls. What is called IC50 is the concentration needed to halve the response being measured. What is called Papp A→B is the apparent permeability from the apical to the basolateral side of a cell layer. Low readings indicate poor permeation, high ones ready permeation. As usually defined, the Papp B→A is how fast a substance crosses the layer from the basolateral side. By solubility (kinetic) is commonly meant solubility judged after dilution from a stock solution rather than from solid. Take `N#Cc1cnc(Nc2cc(-c3ccccc3OCC3CNCCO3)on2)cn1` (stereo not shown) [Compound 1.1, 5-(5-(2-(morpholin-2-ylmethoxy)phenyl)isoxazol-3-ylamino) pyrazine-2-carbonitrile]: the inhibition at 0.03 µM in series [1] is 49%. Also, the inhibition at 0.3 µM in series [1] is 88%. In series [1], the IC50 turned out to be 0.0677 µM. Besides, the recovery at 120 min in series [2] (setting [8]) came to 69%; in series [2] (setting [9]), 102%; in series [2] (setting [10]) it was 94.1%; in series [2] (setting [11]), 107%. Besides, the Papp A→B at 120 min in series [2] turned out to be 7 ×10⁻⁶ cm/s. In series [2], this molecule registered a Papp B→A at 120 min of 8.7 ×10⁻⁶ cm/s. Moreover, the microsomal CLint at 1 μM in series [3] stood at 32 µL/min/mg; in series [4], 100 µL/min/mg; in series [5], 58 µL/min/mg. Further, in series [6], the kinetic solubility at 1 h worked out at 44 µM (≈ 16.6 µg/mL).

For `N#Cc1cnc(Nc2cc(-c3ccccc3OCC3CCNCC3)on2)cn1` [Compound 1.2, 5-(5-(2-(piperidin-4-ylmethoxy)phenyl)isoxazol-3-ylamino) pyrazine-2-carbonitrile], the inhibition at 0.03 µM in series [1] is 36%. Moreover, the inhibition at 0.3 µM in series [1] came to 85%. For the same molecule, the IC50 in series [1] is 0.0133 µM. Besides, the recovery at 120 min was 67.7% in series [2] (setting [8]), 103% in series [2] (setting [9]), 93.9% in series [2] (setting [10]) and 108% in series [2] (setting [11]). In series [2], this molecule came in with a Papp A→B at 120 min of 5.35 ×10⁻⁶ cm/s. Further, the Papp B→A at 120 min in series [2] worked out at 9.75 ×10⁻⁶ cm/s. Further, the microsomal CLint at 1 μM worked out at 45 µL/min/mg in series [3], 39 µL/min/mg in series [4] and 27 µL/min/mg in series [5]. For the same molecule, in series [6], the kinetic solubility at 1 h was 45.6 µM (≈ 17.2 µg/mL).

Regarding `N#Cc1cnc(Nc2cc(-c3ccccc3OCC3CCCNC3)on2)cn1` (stereo not shown) [Compound 1.3, 5-(5-(2-(piperidin-3-ylmethoxy)phenyl)isoxazol-3-ylamino) pyrazine-2-carbonitrile], the inhibition at 0.03 µM in series [1] turned out to be 50%. In series [1], the inhibition at 0.3 µM was determined as 97%. In series [1], the concentration for half-maximal inhibition (IC50) is 0.00777 µM. For the same molecule, the recovery at 120 min is 54.7% in series [2] (setting [8]), 103% in series [2] (setting [9]), 89% in series [2] (setting [10]) and 107% in series [2] (setting [11]). Further, the Papp A→B at 120 min in series [2] is 3.4 ×10⁻⁶ cm/s. Also, in series [2], the Papp B→A at 120 min came to 11.2 ×10⁻⁶ cm/s. Further, the microsomal CLint at 1 μM was determined as 47 µL/min/mg in series [3], 68 µL/min/mg in series [4] and 61 µL/min/mg in series [5]. Besides, the solubility (kinetic) at 1 h in series [6] is 100 µM (≈ 37.6 µg/mL).

`COc1cc(C2=CCNCC2)ccc1-c1cc(Nc2cnc(C#N)cn2)on1` [Compound 1.9, 5-(3-(2-methoxy-4-(1,2,3,6-tetrahydropyridin-4-yl)phenyl)isoxazol-5-ylamino) pyrazine-2-carbonitrile]: the solubility (kinetic) at 1 h in series [7] amounted to 100 µM (≈ 37.4 µg/mL). The inhibition at 0.03 µM in series [1] was 33%. Besides, in series [1], the inhibition at 0.3 µM is 31%. Moreover, the IC50 in series [1] is over 10 µM. The microsomal CLint at 1 μM came out at 159 µL/min/mg in series [3], 83 µL/min/mg in series [4] and 85 µL/min/mg in series [5].

Molecule `COc1cc(C2=CCNCC2)ccc1-c1cc(Nc2cnc(C#N)cn2)no1` [Compound 1.19, 5-(5-(2-methoxy-4-(1,2,3,6-tetrahydropyridin-4-yl)phenyl)isoxazol-3-ylamino) pyrazine-2-carbonitrile] returned a kinetic solubility at 1 h in series [7] of 27.6 µM (≈ 10.3 µg/mL). In addition, in series [1], the inhibition at 0.03 µM came to 15.1%. Moreover, the inhibition at 0.3 µM in series [1] was determined as 50.5%. The microsomal CLint at 1 μM in series [3] turned out to be 183 µL/min/mg; in series [4], 239 µL/min/mg; in series [5], 88 µL/min/mg.

`COc1cc(C2=CCN(C)CC2)ccc1-c1cc(Nc2cnc(C#N)cn2)on1` [Compound 1.22, 5-(3-(2-methoxy-4-(1-methyl-1,2,3,6-tetrahydropyridin-4-yl)phenyl)isoxazol-5-ylamino) pyrazine-2-carbonitrile] yielded a kinetic solubility at 1 h in series [7] of 28.4 µM (≈ 11 µg/mL). Moreover, the inhibition at 0.03 µM in series [1] amounted to 13.7%. The inhibition at 0.3 µM in series [1] turned out to be 11%. Also, the microsomal CLint at 1 μM in series [3] amounted to 169 µL/min/mg; in series [4] it was 313 µL/min/mg; in series [5], 142 µL/min/mg.
